# Data reported in publication PMC4690855 (Viruses, 2015).
# “And” between values parts separate entries of the source, which are not always exact repeats. Equal entries are not always repeated. “Also recorded” adds a separate entry of the source. Structures can show the parent of a compound that is named as a salt. Where two headings read alike, the source gives them in different places.
# How the values were obtained:
# [1] = system: HIV-2 vectors harboring the double mutation (I54M, L90M); assay: Cell culture inhibition profiling, HIV-2 vector harboring the double mutation; format: cell-based; conditions: for IC50: transfected 293T cells, 3 days, RT activity in medium, triplicate, mean ± SD, read-out: IC50 Double Mutant (I54M, L90M) (cell culture); for Fold Increase (IC50, cell culture): IC50 double mutant versus wild-type; for Effect of I54M-L90M double mutation on IC50 in cell culture, in words: double mutant versus wild-type vector
# [2] = molecular target: T1, double mutant (I54M, L90M) HIV-2 protease (Human immunodeficiency virus type 2 subtype A, UniProt P04584, I567M/L603M); assay: In vitro enzymatic (HPLC) inhibition assay, double mutant protease; format: biochemical
# T1 sequence (P04584 514-612 I567M/L603M): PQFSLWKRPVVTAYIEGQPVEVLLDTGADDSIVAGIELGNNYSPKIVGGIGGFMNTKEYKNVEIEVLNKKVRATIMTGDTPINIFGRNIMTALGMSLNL
# wild-type HIV-2 vectors = assay: Cell culture inhibition profiling, wild-type HIV-2 vector; format: cell-based; conditions: transfected 293T cells, 3 days, RT activity in medium, triplicate, mean ± SD
# wild-type HIV-2 protease = wild-type HIV-2 protease (Human immunodeficiency virus type 2 subtype A, UniProt P04584); assay: In vitro enzymatic (HPLC) inhibition assay, wild-type protease; format: biochemical
# wild-type HIV-2 protease, sequence (P04584 514-612 limits assumed): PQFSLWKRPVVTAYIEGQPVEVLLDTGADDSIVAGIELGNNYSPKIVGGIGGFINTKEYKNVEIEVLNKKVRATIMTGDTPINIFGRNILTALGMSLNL
# [3] = system: double mutant (I54M, L90M) HIV-2 protease; assay: In vitro enzymatic (HPLC) inhibition assay, double mutant protease; format: biochemical; conditions: for Fold Increase (Ki): Ki double mutant versus wild-type
# [4] = Human immunodeficiency virus 2, HEK-293T, 72 h
# [5] = HPLC, oligopeptide substrate, pH 5.6, 37 °C 1 h, triplicate, mean ± SD, read-out: IC50 Wild-Type
# [6] = calculated from IC50 by Ki = (IC50 − E/2)/(S/Km + 1), mean ± SD, read-out: Ki Wild-Type
Structure (SMILES),"IC50 [1, 4] [µM]",IC50 [2] [nM],"Fold Increase (IC50, cell culture) [1] [fold]","Effect of I54M-L90M double mutation on IC50 in cell culture, in words [1]",Fold Increase (Ki) [3],IC50 (wild-type HIV-2 protease; [5]) [nM],Ki (wild-type HIV-2 protease; [6]),further results
CC(C)CN(C[C@@H](O)[C@H](Cc1ccccc1)NC(=O)O[C@H]1CCOC1)S(=O)(=O)c1ccc(N)cc1 [Amprenavir],> 100,152 ± 9,,,,,,
"COC(=O)N[C@H](C(=O)N[C@@H](Cc1ccccc1)[C@@H](O)CN(Cc1ccc(-c2ccccn2)cc1)NC(=O)[C@@H](NC(=O)OC)C(C)(C)C)C(C)(C)C.O=S(=O)(O)O [Atazanavir sulfate, atazanavir sulfate]",,,4.8,significant IC50 increase,more than 10 fold,,,"IC50 (wild-type HIV-2 vectors): 5.9 ± 0.5 µM; IC50 [1]: 28.6 ± 0.35 µM; Ki (wild-type HIV-2 protease; wild-type protease, read-out: Ki Wild-Type (as printed in text in μM)): 0.09 ± 0.03 nM"
COC(=O)N[C@H](C(=O)N[C@@H](Cc1ccccc1)[C@@H](O)CN(Cc1ccc(-c2ccccn2)cc1)NC(=O)[C@@H](NC(=O)OC)C(C)(C)C)C(C)(C)C [Atazanavir],,10.9 ± 0.2,,,16.6 fold,3.34 ± 1,0.09 ± 0.03 nM,
CC(C)CN(C[C@@H](O)[C@H](Cc1ccccc1)NC(=O)O[C@H]1CO[C@H]2OCC[C@H]21)S(=O)(=O)c1ccc(N)cc1 [Darunavir],18.7 ± 1.6,8.14 ± 1.3,44.5,,22.2 fold,,,"Fold Increase (IC50, cell culture) ([1]; listed as darunavir): > 40 fold; IC50 (wild-type HIV-2 protease): 1.76 ± 0.1 nM; Ki (wild-type HIV-2 protease; Ki Wild-Type, calculated from IC50 by Ki = (IC50 − E/2)/(S/Km + 1), mean ± SD): 0.05 ± 0.005 nM; Fold Increase (Ki) ([3]; listed as darunavir): > 20 fold"
"CC(C)(C)NC(=O)[C@@H]1CN(Cc2cccnc2)CCN1C[C@@H](O)C[C@@H](Cc1ccccc1)C(=O)N[C@H]1c2ccccc2C[C@H]1O [Indinavir sulfate, indinavir sulfate]",16.5 ± 2.1,,11.7,,more than 10 fold,,0.03 nM,"Fold Increase (IC50, cell culture) ([1]; listed as indinavir sulfate): > 10 fold"
CC(C)(C)NC(=O)[C@@H]1CN(Cc2cccnc2)CCN1C[C@@H](O)C[C@@H](Cc1ccccc1)C(=O)N[C@H]1c2ccccc2C[C@H]1O [Indinavir],,2.6 ± 1.4,,,12 fold,1.3 ± 0.5,,
Cc1cccc(C)c1OCC(=O)N[C@@H](Cc1ccccc1)[C@@H](O)C[C@H](Cc1ccccc1)NC(=O)[C@H](C(C)C)N1CCCNC1=O [Lopinavir],3.1 ± 1.1,2.32 ± 0.1,20.6,,10.6 fold,1.18 ± 0.1,0.03 ± 0.001 nM,"Fold Increase (IC50, cell culture) ([1]; listed as lopinavir): > 20 fold; Fold Increase (Ki) ([3]; listed as lopinavir): more than 10 fold"
Cc1c(O)cccc1C(=O)N[C@@H](CSc1ccccc1)[C@H](O)CN1C[C@H]2CCCC[C@H]2C[C@H]1C(=O)NC(C)(C)C [Nelfinavir],5.1 ± 1.7,190 ± 14.5,1.8,significant IC50 increase,26 fold,38 ± 10,1 nM and 1.01 nM,Fold Increase (Ki) ([3]; listed as nelfinavir): > 20 fold
CC(C)c1nc(CN(C)C(=O)N[C@H](C(=O)N[C@@H](Cc2ccccc2)C[C@H](O)[C@H](Cc2ccccc2)NC(=O)OCc2cncs2)C(C)C)cs1 [Ritonavir],14.5 ± 0.3,,,,,,,
CC(C)(C)NC(=O)[C@@H]1C[C@@H]2CCCC[C@@H]2CN1C[C@@H](O)[C@H](Cc1ccccc1)NC(=O)[C@H](CC(N)=O)NC(=O)c1ccc2ccccc2n1 [Saquinavir],3.5 ± 1.2,14.1 ± 1.7,2.7,significant IC50 increase,21.4 fold,3.42 ± 0.1,0.09 ± 0.001 nM,Fold Increase (Ki) ([3]; listed as saquinavir): > 20 fold
CCC[C@@]1(CCc2ccccc2)CC(O)=C([C@H](CC)c2cccc(NS(=O)(=O)c3ccc(C(F)(F)F)cn3)c2)C(=O)O1 [Tipranavir],5.8 ± 1.7,4.8 ± 1.6,1.5,did not have an effect,0.5 fold,50 ± 2,1.3 nM and 1.31 nM,"Effect of I54M, L90M double mutation on inhibitor efficacy (enzymatic), in words ([3]; double mutant versus wild-type protease): remained indifferent to the mutations; also recorded: did not observe a significant increase in Ki"
